Our source for the IC50 values is patent US9233983B2, “Substituted hetero-bicyclic compounds, compositions and medicinal applications thereof” (ADVINUS THERAPEUTICS LIMITED, priority 2012, dated 2016).

pIC50: −log10 of the molar value.

Test [1] has as its target human Bruton's Tyrosine Kinase (Btk) (Homo sapiens (Human), UniProt Q06187). Kind of test: Recombinant Human Bruton's Tyrosine Kinase (Btk) Inhibition Assay (HTRF KinEASE-TK). It counts as biochemical. Particulars: 20 ng/ml rhBtk, 77 μM ATP (KM), 1 μM TK-Biotin substrate, 90 min; read-out: hBTK IC50.
The subject of the next test is mouse splenocytes. Nature of the test: Inhibition of B Cell Activation as Measured by CD69 Expression in Mouse Splenocytes. In kind it is cell-based. Particulars: Splenocyte; C57/BL6 splenocytes, 3 ug/mL goat anti-mouse IgM, 18-20 hrs, CD69+ve cells within CD19; read-out: Mouse spleenocyte IC50. The method, then:
Inhibition of B Cell Activation as Measured by CD69 Expression in Mouse Splenocytes:
To test the effect of BTK inhibitors in suppressing B-cell receptor (BCR) mediated activation of B cells, we developed a flow cytometry based assay to analyze CD69 expression in B cell population among total splenocyte from the mouse. […] Finally, cell were cultured in RPMI medium with 10% FBS.
Test compounds were diluted half log starting from 2 mM in 100% DMSO (200×). 1×10^5 splenocytes were incubated with 1 uL of diluted test compounds in 200 uL culture medium in a U-bottom 96 well plate (Greiner) at 37° C. with 5% CO2 for 30 mins. Control wells received 1 uL of 100% DMSO without any compound. The cells were stimulated with 3 ug/mL goat anti-mouse IgM (Sigma, cat#M8644) and incubated for 18-20 hrs. […] Then the cells were washed 3 times with PBS with 1% FBS and analyzed by Guava Easycyte Mini flow cytometer system (Millipore). Flow cytometry data were analyzed using Weasel software (WEHI, Melbourne). First B cells were gated using CD19 markers. Then expression of CD69 was analyzed as percentage of CD69+ve cells within CD19. Percent activity for each data point was calculated using following formula: […]
Percentage activity was fit using sigmoid dose response with variable slope logistic equation in Graph-pad Prism 5 software to determine inhibition constant 50 (IC50).

Chain of human Bruton's Tyrosine Kinase (Btk) (Q06187 whole entry): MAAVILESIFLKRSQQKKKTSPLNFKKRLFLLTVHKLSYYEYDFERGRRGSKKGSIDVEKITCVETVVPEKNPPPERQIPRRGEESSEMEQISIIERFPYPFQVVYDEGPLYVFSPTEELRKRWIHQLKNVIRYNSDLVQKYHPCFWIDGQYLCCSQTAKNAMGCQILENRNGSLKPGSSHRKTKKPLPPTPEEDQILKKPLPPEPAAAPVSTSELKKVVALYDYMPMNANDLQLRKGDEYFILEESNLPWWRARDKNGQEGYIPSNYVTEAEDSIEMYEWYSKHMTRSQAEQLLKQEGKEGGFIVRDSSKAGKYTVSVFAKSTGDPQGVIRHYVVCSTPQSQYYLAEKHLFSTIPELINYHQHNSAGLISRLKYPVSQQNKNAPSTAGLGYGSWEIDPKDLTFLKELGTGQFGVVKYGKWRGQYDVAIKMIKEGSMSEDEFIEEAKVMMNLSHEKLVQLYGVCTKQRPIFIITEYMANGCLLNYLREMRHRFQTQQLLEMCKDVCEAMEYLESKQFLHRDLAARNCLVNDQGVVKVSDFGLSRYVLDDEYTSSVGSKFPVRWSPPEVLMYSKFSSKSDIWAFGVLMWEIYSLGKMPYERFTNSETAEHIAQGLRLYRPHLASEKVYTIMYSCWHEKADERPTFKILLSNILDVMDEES

Consider `CN1CC(N2CC=C(c3cc4c(-c5cccc(N6CCOc7cc(C8CC8)cc(F)c7C6=O)c5CO)ccnc4[nH]3)CC2)C1` [Example R-4, 8-cyclopropyl-6-fluoro-4-[2-(hydroxymethyl)-3-[2-[1-(1-methylazetidin-3-yl)-3,6-dihydro-2H-pyridin-4-yl]-1H-pyrrolo[2,3-b]pyridin-4-yl]phenyl]-2,3-dihydro-1,4-benzoxazepin-5-one], for which the pIC50 in test [1] is 8.80; in the test on mouse splenocytes, 7.15.
For the compound `CC1(O)CCN(C(=O)c2ccc(-c3cc4c(-c5cccc(N6CCOc7cc(C8CC8)ccc7C6=O)c5CO)ccnc4[nH]3)cc2)CC1` [Example L-2, 8-cyclopropyl-4-[2-(hydroxymethyl)-3-[2-[4-(4-hydroxy-4-methyl-piperidine-1-carbonyl)phenyl]-1H-pyrrolo[2,3-b]pyridin-4-yl]phenyl]-2,3-dihydro-1,4-benzoxazepin-5-one], the results for the pIC50 (in test [1]; in the test with mouse splenocytes) were 8.05 and 7.06, respectively.
For the compound `CS(=O)(=O)N1CCN(Cc2ccc(-c3cc4c(-c5cccc(N6CCOc7cc(C8CC8)ccc7C6=O)c5CO)ccnc4[nH]3)nc2)CC1` [Example I-6, 8-cyclopropyl-4-[2-(hydroxymethyl)-3-[2-[5-[(4-methylsulfonylpiperazin-1-yl)methyl]-2-pyridyl]-1H-pyrrolo[2,3-b]pyridin-4-yl]phenyl]-2,3-dihydro-1,4-benzoxazepin-5-one], the values for the pIC50 (in test [1]; with mouse splenocytes) were 8.52 and 7.44, respectively.
For `CCN1CCN(Cc2ccc(-c3cc4c(-c5cccc(N6CCOc7cc(C8CC8)cc(F)c7C6=O)c5CO)ccnc4[nH]3)nc2)CC1` [Example I-12, 8-cyclopropyl-4-[3-[2-[5-[(4-ethylpiperazin-1-yl)methyl]-2-pyridyl]-1H-pyrrolo[2,3-b]pyridin-4-yl]-2-(hydroxymethyl)phenyl]-6-fluoro-2,3-dihydro-1,4-benzoxazepin-5-one] the same measures were 8.70 and 7.34.
On to `CN1CCN(Cc2ccc(-c3cc4c(-c5cccc(N6CCOc7cc(C8CC8)ccc7C6=O)c5CO)ccnc4[nH]3)nc2)CC1` [Example I-1, 8-cyclopropyl-4-[2-(hydroxymethyl)-3-[2-[5-[(4-methylpiperazin-1-yl)methyl]-2-pyridyl]-1H-pyrrolo[2,3-b]pyridin-4-yl]phenyl]-2,3-dihydro-1,4-benzoxazepin-5-one], for which the pIC50 in test [1] is 8.30; in the test on mouse splenocytes it was 7.85.
For `CC1(O)CCC(n2cc(-c3cc4c(-c5cccc(N6CCOc7cc(C8CC8)ccc7C6=O)c5CO)ccnc4[nH]3)cn2)CC1` (stereo not shown) [Example F-3, 8-cyclopropyl-4-[2-(hydroxymethyl)-3-[2-[1-(4-hydroxy-4-methyl-cyclohexyl)pyrazol-4-yl]-1H-pyrrolo[2,3-b]pyridin-4-yl]phenyl]-2,3-dihydro-1,4-benzoxazepin-5-one] the same measures were 8.42 and 7.04.
For `Cc1c(-c2nc(N)nc3[nH]c(-c4ccc(C(=O)N5CCOCC5)cc4)cc23)cccc1N1CCOc2cc(C3CC3)ccc2C1=O` [Example O-1, 4-[3-[2-amino-6-[4-(morpholine-4-carbonyl)phenyl]-7H-pyrrolo[2,3-d]pyrimidin-4-yl]-2-methyl-phenyl]-8-cyclopropyl-2,3-dihydro-1,4-benzoxazepin-5-one], the pIC50 in test [1] was 7.26; with mouse splenocytes, 6.77.
For `CC(=O)N1CC(N2CC=C(c3cc4c(-c5cccc(N6CCOc7cc(C8CC8)cc(F)c7C6=O)c5CO)ccnc4[nH]3)CC2)C1` [Example R-1, 4-[3-[2-[1-(1-acetylazetidin-3-yl)-3,6-dihydro-2H-pyridin-4-yl]-1H-pyrrolo[2,3-b]pyridin-4-yl]-2-(hydroxymethyl)phenyl]-8-cyclopropyl-6-fluoro-2,3-dihydro-1,4-benzoxazepin-5-one], in that order: 8.66 and 7.12.
For `CN1CCN(Cc2ccc(-c3cc4c(-c5cccc(N6CCOc7cc(C8CC8)ccc7C6=O)c5CO)ccnc4[nH]3)cc2)CC1` [Example B-13, 8-cyclopropyl-4-[2-(hydroxymethyl)-3-[2-[4-[(4-methylpiperazin-1-yl)methyl]phenyl]-1H-pyrrolo[2,3-b]pyridin-4-yl]phenyl]-2,3-dihydro-1,4-benzoxazepin-5-one], in that order: 8.52 and 8.05.
For `CN1CCC(n2cc(-c3cc4c(-c5cccc(N6CCOc7cc(C8CC8)ccc7C6=O)c5CO)ncnc4[nH]3)cn2)CC1` [Example D-1, 8-cyclopropyl-4-[2-(hydroxymethyl)-3-[6-[1-(1-methyl-4-piperidyl)pyrazol-4-yl]-7H-pyrrolo[2,3-d]pyrimidin-4-yl]phenyl]-2,3-dihydro-1,4-benzoxazepin-5-one] the same measures were 8.22 and 7.49.
In the case of `CN1CCC(Oc2ccc(-c3cc4c(-c5cccc(N6CCOc7cc(C8CC8)ccc7C6=O)c5CO)ncnc4[nH]3)cc2)CC1` [Example G-1, 8-cyclopropyl-4-[2-(hydroxymethyl)-3-[6-[4-[(1-methyl-4-piperidyl)oxy]phenyl]-7H-pyrrolo[2,3-d]pyrimidin-4-yl]phenyl]-2,3-dihydro-1,4-benzoxazepin-5-one], the figures for the pIC50 (in test [1]; in the test with mouse splenocytes) were 8.52 and 7.29, respectively.
With `CN1CC(n2cc(-c3cc4c(-c5cccc(N6CCOc7cc(C8CC8)ccc7C6=O)c5CO)ccnc4[nH]3)cn2)C1` [Example D-7, 8-cyclopropyl-4-[2-(hydroxymethyl)-3-[2-[1-(1-methylazetidin-3-yl)pyrazol-4-yl]-1H-pyrrolo[2,3-b]pyridin-4-yl]phenyl]-2,3-dihydro-1,4-benzoxazepin-5-one], the pIC50 in test [1] is 8.40; in the test on mouse splenocytes, 7.37.
Take `CCN1CCC(n2cc(-c3cc4c(-c5cccc(-n6ncc7cc(C8CC8)ccc7c6=O)c5CO)ncnc4[nH]3)cn2)CC1` [Example D-13, 6-cyclopropyl-2-[3-[6-[1-(1-ethyl-4-piperidyl)pyrazol-4-yl]-7H-pyrrolo[2,3-d]pyrimidin-4-yl]-2-(hydroxymethyl)phenyl]phthalazin-1-one]: the pIC50 in test [1] was 8.52; with mouse splenocytes it was 7.19.
For `C=CC(=O)N1CCCC(n2cc(-c3cc4c(-c5cccc(N6CCOc7cc(C8CC8)ccc7C6=O)c5CO)ncnc4[nH]3)cn2)C1` (stereo not shown) [Example S-1, 8-cyclopropyl-4-[2-(hydroxymethyl)-3-[6-[1-(1-prop-2-enoyl-3-piperidyl)pyrazol-4-yl]-7H-pyrrolo[2,3-d]pyrimidin-4-yl]phenyl]-2,3-dihydro-1,4-benzoxazepin-5-one] the same measures were 8.40 and 6.89.
Take `Cc1c(-c2ncnc3[nH]c(-c4ccc(C(=O)N5CCC(C)(O)CC5)cc4)cc23)cccc1N1CCOc2cc(C3CC3)ccc2C1=O` [Example K-4, 8-cyclopropyl-4-[3-[6-[4-(4-hydroxy-4-methyl-piperidine-1-carbonyl)phenyl]-7H-pyrrolo[2,3-d]pyrimidin-4-yl]-2-methyl-phenyl]-2,3-dihydro-1,4-benzoxazepin-5-one]: the pIC50 was 7.29 in test [1] and 6.89 in the test on mouse splenocytes.
For `CN1CCCC(n2cc(-c3cc4c(-c5cccc(N6CCOc7cc(C8CC8)ccc7C6=O)c5CO)ncnc4[nH]3)cn2)C1` [Example D-6, 8-cyclopropyl-4-[2-(hydroxymethyl)-3-[6-[1-(1-methyl-3-piperidyl)pyrazol-4-yl]-7H-pyrrolo[2,3-d]pyrimidin-4-yl]phenyl]-2,3-dihydro-1,4-benzoxazepin-5-one] the same measures were 8.30 and 7.28.
For `Cc1c(-c2ncnc3[nH]c(-c4ccc(C(=O)N5CCNCC5)cc4)cc23)cccc1N1CCOc2cc(C3CC3)ccc2C1=O` [Example K-6, 8-cyclopropyl-4-[2-methyl-3-[6-[4-(piperazine-1-carbonyl)phenyl]-7H-pyrrolo[2,3-d]pyrimidin-4-yl]phenyl]-2,3-dihydro-1,4-benzoxazepin-5-one], in that order: 8.01 and 6.72.
For `CN1CCC(F)(c2ccc(-c3cc4c(-c5cccc(N6CCOc7cc(C8CC8)ccc7C6=O)c5CO)ccnc4[nH]3)cc2)CC1` [Example J-1, 8-cyclopropyl-4-[3-[2-[4-(4-fluoro-1-methyl-4-piperidyl)phenyl]-1H-pyrrolo[2,3-b]pyridin-4-yl]-2-(hydroxymethyl)phenyl]-2,3-dihydro-1,4-benzoxazepin-5-one] the same measures were 8.05 and 6.75.
`CN1CCN(c2ccc(-c3cc4c(-c5cccc(-n6ccc7cc(C8CC8)ccc7c6=O)c5CO)ncnc4[nH]3)cc2)CC1` [Example C-1, 6-cyclopropyl-2-[2-(hydroxymethyl)-3-[6-[4-(4-methylpiperazin-1-yl)phenyl]-7H-pyrrolo[2,3-d]pyrimidin-4-yl]phenyl]isoquinolin-1-one]: the pIC50 was 8.30 in test [1] and 8.05 in the test with mouse splenocytes.
For `CC1(O)CCN(C(=O)c2ccc(-c3cc4c(-c5cccc(N6CCOc7cc(C8CC8)cc(F)c7C6=O)c5CO)ccnc4[nH]3)nc2)CC1` [Example L-3, 8-cyclopropyl-6-fluoro-4-[2-(hydroxymethyl)-3-[2-[5-(4-hydroxy-4-methyl-piperidine-1-carbonyl)-2-pyridyl]-1H-pyrrolo[2,3-b]pyridin-4-yl]phenyl]-2,3-dihydro-1,4-benzoxazepin-5-one] the same measures were 8.10 and 7.68.
